Values after ≈ are worked out from the molar mass of the structure shown.
Tests used:
[1] = tested on: SN12-K1; assay: NCI in vitro cytotoxicity, renal cancer; type: cell-based; conditions: Homo sapiens, SN12K1
[2] = tested on: protein kinase C; assay: protein kinase C displacement test; type: binding; conditions: 10 μM
[3] = tested on: SNB-19; assay: NCI in vitro cytotoxicity, CNS cancer; type: cell-based; conditions: Homo sapiens
[4] = tested on: H460; assay: NCI in vitro cytotoxicity, non-small cell lung cancer; type: cell-based; conditions: Homo sapiens
[5] = tested on: A704; assay: NCI in vitro cytotoxicity, renal cancer; type: cell-based; conditions: Homo sapiens
[6] = tested on: SK-MEL2; assay: NCI in vitro cytotoxicity, melanoma; type: cell-based; conditions: Homo sapiens, SK-MEL-2
[7] = tested on: U251; assay: NCI in vitro cytotoxicity, CNS cancer; type: cell-based; conditions: Homo sapiens, U-251
[8] = tested on: human tumor cell line panel; assay: NCI human tumor cell line panel, overall; type: cell-based; conditions: Table 6 summary
[9] = tested on: OVCAR-3; assay: NCI in vitro cytotoxicity, ovarian cancer; type: cell-based; conditions: Homo sapiens
[10] = tested on: OVCAR-5; assay: NCI in vitro cytotoxicity, ovarian cancer; type: cell-based; conditions: Homo sapiens
[11] = tested on: K562; assay: NCI in vitro cytotoxicity, leukemia; type: cell-based; conditions: Homo sapiens
[12] = tested on: H524; assay: NCI in vitro cytotoxicity, small cell lung cancer; type: cell-based; conditions: Homo sapiens
[13] = tested on: SK-MEL5; assay: NCI in vitro cytotoxicity, melanoma; type: cell-based; conditions: Homo sapiens, SK-MEL-5
[14] = tested on: H522; assay: NCI in vitro cytotoxicity, non-small cell lung cancer; type: cell-based; conditions: Homo sapiens
[15] = tested on: brine shrimp (Artemia salina Leach); assay: whole plant or invertebrate; type: in vivo; conditions: 24 hrs, read-out: BST LC50
Description: The extracts, fractions, and isolated compounds were routinely evaluated for lethality to brine shrimp larvae (BST). The LC50 of brine shrimp (Artemia salina Leach) was determined by substantially the same method described by Meyer et al. [Planta Med., 45: 31-34 (1982)]. The test sample was dissolved in solvent and added to 2-dram vials in an amount to provide 1000, 100, 10, 1, etc. p.p.m. of material in the final brine preparation, assuming complete miscibility in the brine. The vials were dried in vacuo, and artificial sea water, prepared from a commercial salt mixture, was added. Ten brine shrimp larva (nauplii), 48-72 hrs. old, were introduced to the vial, and the volume was made up to 5 ml. with the sea water. After 24 hrs., the percent mortality was computed. Subsequently, LC50 values and 95% confidence limits were calculated by a Finney probit analysis to permit comparison of potencies of extracts and fractions.
Anticancer activity is a potential use even for the crude extract. The bioassay results for the lethality of brine shrimp (BST), the inhibition of crown gall tumors on potato discs (PD), the reversal in morphology of db-cAMP induced AC glioma cells from that of mature, differentiated astrocytes to that of immature AC glioma cells (mouse brain cells) (9ASK), the dose that inhibits cell growth to one-half that of untreated poorly differentiated human epidermic carcinoma (9KB), the dose that inhibits cell growth to one-half that of a methylcholanthrene-induced lymphoid neoplasm in a DBA/2 mouse (9PS), and the percent displacement in a protein kinase C test for initial extract fractions are shown in Table 1. Obviously, the bioactivity is concentrated in F005.

[16] = tested on: UO-31; assay: NCI in vitro cytotoxicity, renal cancer; type: cell-based; conditions: Homo sapiens
[17] = tested on: RPMI-7951; assay: NCI in vitro cytotoxicity, melanoma; type: cell-based; conditions: Homo sapiens
[18] = tested on: LOX; assay: NCI in vitro cytotoxicity, melanoma; type: cell-based; conditions: Homo sapiens
Text: (§1) Isolated pure compounds were sent to the National Institute of Health, National Cancer Institute, Bethesda, Md., for testing in human cancer cell line panels including leukemia, non-small cell lung cancer, small cell lung cancer, CNS cancer, melanoma, ovarian cancer and renal cancer.
(§2) To test further the selective specificity of antitumor activities, bullatacin was sent to the NIH, NCI at Bethesda, Md., for their human tumor cell line panel tests including leukemia, non-small cell lung cancer, small cell lung cancer, colon cancer, breast cancer, CNS cancer melanoma, ovarian cancer, and renal cancer.

[19] = tested on: P388; assay: NCI in vitro cytotoxicity, leukemia; type: cell-based; conditions: Mus musculus
[20] = tested on: corn root worm (CRW) Diabrotics undecimcuntata howardii; type: in vivo; conditions: at 24 ppm
Description: (§3) Pesticidal bioassays were conducted at Eli Lilly Laboratories (Greenfield, Ind.) following standard procedures with eight indicator organisms: mosquito larvae (ML) Aedes aegypti (in the media), blowfly larvae (BFL) (1% in the diet), corn root worm (CRW) Diabrotics undecimcuntata howardii (in soil), two-spotted spider mite (2SSM) Tetranychus urticae (on foliage), southern army worm (SAW) Spodoptera eridania (on foliage), melon aphid (MA) (5000 ppm on foliage), cotton aphid (CA) Aphis gossypii, (on foliage) and Haemonchus contortus (HC) (a nematode, 0.1% in the media).
(§4) Pesticidal bioassays on initial fractions were conducted at Eli Lilly Laboratories (Greenfield, Ind.) following standard procedures with seven indicator organisms: mosquito larvae (ML), blow fly larvae (BFL), corn root worm (CRW), two-spotted spider mite (2SSM), southern army worm (SAW), melon aphid (MA), and Haemonchus contortus (HC).

[21] = tested on: two-spotted spider mite (2SSM) Tetranychus urticae; type: in vivo; conditions: at 10 ppm
Description: as §3, §4

[22] = tested on: MALME-3M; assay: NCI in vitro cytotoxicity, melanoma; type: cell-based; conditions: Homo sapiens
[23] = tested on: HL-60 TB; assay: NCI in vitro cytotoxicity, leukemia; type: cell-based; conditions: Homo sapiens
[24] = tested on: H82; assay: NCI in vitro cytotoxicity, small cell lung cancer; type: cell-based; conditions: Homo sapiens
[25] = tested on: H23; assay: NCI in vitro cytotoxicity, non-small cell lung cancer; type: cell-based; conditions: Homo sapiens
[26] = tested on: MCF7; assay: NCI in vitro cytotoxicity, breast cancer; type: cell-based; conditions: Homo sapiens
[27] = tested on: A-549(ATCC); assay: NCI in vitro cytotoxicity, non-small cell lung cancer; type: cell-based; conditions: Homo sapiens, A549
Text: as §1, §2

Question: For `CCCCCCCCCCC(O)C1CCC(C2CCC(C(O)CCCCCCCCCCC(O)CC3=CC(C)OC3=O)O2)O1` (stereo not shown) [Bullatacin], which IC50 [1] is on record?
Answer: The IC50 was 0.0224 ng/mL (≈ 3.6e-05 µM).

Question: And the IC90 [1]?
Answer: Its IC90 is 0.000287 µg/mL (≈ 0.000461 µM).

Question: And the “displacement in a protein kinase C test” value [2]?
Answer: The value was 7%.

Question: And the IC50 [3]?
Answer: Its IC50 is over 0.926 µg/mL.

Question: And the IC90 [3]?
Answer: The IC90 was over 0.926 µg/mL.

Question: What about the IC50 [4] of the same molecule?
Answer: Its IC50 is 0.0287 ng/mL (≈ 4.61e-05 µM).

Question: And the IC90 [4]?
Answer: Its IC90 is 0.000185 µg/mL (≈ 0.000297 µM).

Question: And the IC50 [5]?
Answer: Its IC50 is 1.36 µg/mL (≈ 2.18 µM).

Question: What about the IC90 [5] of the same molecule?
Answer: The IC90 was 8 µg/mL (≈ 12.8 µM).

Question: What about the IC90 [6] of the same molecule?
Answer: Its IC90 is 8.64 µg/mL (≈ 13.9 µM).

Question: And the IC50 [7]?
Answer: The IC50 was under 0.00924 ng/mL.

Question: And the IC90 [7]?
Answer: The IC90 was 0.0437 ng/mL (≈ 7.02e-05 µM).

Question: And the “tumor types most sensitive in panel” value [8]?
Answer: Its value is “best active for certain CNS cancers, non-small cell lung cancers, leukemias, and ovarian cancers”.

Question: What about the IC50 [9] of the same molecule?
Answer: Its IC50 is over 0.0924 µg/mL.

Question: What about the IC90 [9] of the same molecule?
Answer: The IC90 was over 0.0924 µg/mL.

Question: And the IC50 [10]?
Answer: The IC50 was 8.8 µg/mL (≈ 14.1 µM).

Question: And the IC90 [10]?
Answer: Its IC90 is over 9.26 µg/mL.

Question: And the IC50 [11]?
Answer: Its IC50 is under 0.000926 µg/mL.

Question: What about the IC90 [11] of the same molecule?
Answer: The IC90 was 4.5 µg/mL (≈ 7.22 µM).

Question: What about the IC50 [12] of the same molecule?
Answer: The IC50 was 2.69 µg/mL (≈ 4.32 µM).

Question: What about the IC90 [12] of the same molecule?
Answer: The IC90 was 7.54 µg/mL (≈ 12.1 µM).

Question: What about the IC50 [13] of the same molecule?
Answer: The IC50 was over 0.000926 µg/mL.

Question: What about the IC90 [13] of the same molecule?
Answer: Its IC90 is 5.22 µg/mL (≈ 8.38 µM).

Question: What about the IC50 [14] of the same molecule?
Answer: The IC50 was 2.46 µg/mL (≈ 3.95 µM).

Question: And the IC90 [14]?
Answer: Its IC90 is over 9.24 µg/mL.

Question: And the LC50 [15]?
Answer: The LC50 was 0.00159 µg/mL (≈ 0.00255 µM).

Question: And the IC50 [16]?
Answer: The IC50 was 1.94 µg/mL (≈ 3.11 µM).

Question: What about the IC90 [16] of the same molecule?
Answer: The IC90 was over 9.26 µg/mL.

Question: And the IC50 [17]?
Answer: The IC50 was 2.73 µg/mL (≈ 4.38 µM).

Question: And the IC90 [17]?
Answer: Its IC90 is 7.71 µg/mL (≈ 12.4 µM).

Question: What about the IC50 [18] of the same molecule?
Answer: Its IC50 is under 0.000926 µg/mL.

Question: And the IC90 [18]?
Answer: Its IC90 is 3.76 µg/mL (≈ 6.04 µM).

Question: And the IC50 [19]?
Answer: Its IC50 is over 0.0924 µg/mL.

Question: And the IC90 [19]?
Answer: Its IC90 is over 0.0924 µg/mL.

Question: And the “toxicity to southern corn rootworm” value [20]?
Answer: Its value is “significantly toxic”.

Question: And the “toxicity to two-spotted spider mites” value [21]?
Answer: Its value is “significantly toxic”.

Question: What about the IC50 [22] of the same molecule?
Answer: Its IC50 is 2.82 µg/mL (≈ 4.53 µM).

Question: What about the IC90 [22] of the same molecule?
Answer: The IC90 was 7.67 µg/mL (≈ 12.3 µM).

Question: What about the IC50 [23] of the same molecule?
Answer: The IC50 was under 0.000926 µg/mL.

Question: And the IC50 [24]?
Answer: The IC50 was 1.99 µg/mL (≈ 3.19 µM).

Question: What about the IC90 [24] of the same molecule?
Answer: Its IC90 is 7.14 µg/mL (≈ 11.5 µM).

Question: And the IC50 [25]?
Answer: The IC50 was 2.38 µg/mL (≈ 3.82 µM).

Question: And the IC90 [25]?
Answer: The IC90 was 9.21 µg/mL (≈ 14.8 µM).

Question: And the IC50 [26]?
Answer: The IC50 was over 0.0924 µg/mL.

Question: What about the IC90 [26] of the same molecule?
Answer: The IC90 was over 0.0924 µg/mL.

Question: And the IC90 [27]?
Answer: The IC90 was over 0.0924 µg/mL.

Source: patent publication US5229419A, “Chemotherapeutically active acetogenins” (Purdue Research Foundation, priority 1992, dated 1993)
